What follows are compounds tested against LRRK2 (Homo sapiens, UniProt Q5S007) (assay: LRRK2 WT assay (Assay B, radiometric 33P-ATP filter binding)). Conditions: Assay B (values marked *).
Type: biochemical
Description: LRRK2(human) is incubated with 50 mM HEPES pH 8.0, 0.2 mM EDTA, 0.01% Brij-35, 1% (w/v) BSA, 5 mM DTT, 250 Mm […], 10 mM Magnesium acetate and [[…]]-ATP (specific activity and concentration as required).
The reaction is initiated by the addition of the Mg/ATP mix.

LRRK2, sequence (Q5S007 whole entry): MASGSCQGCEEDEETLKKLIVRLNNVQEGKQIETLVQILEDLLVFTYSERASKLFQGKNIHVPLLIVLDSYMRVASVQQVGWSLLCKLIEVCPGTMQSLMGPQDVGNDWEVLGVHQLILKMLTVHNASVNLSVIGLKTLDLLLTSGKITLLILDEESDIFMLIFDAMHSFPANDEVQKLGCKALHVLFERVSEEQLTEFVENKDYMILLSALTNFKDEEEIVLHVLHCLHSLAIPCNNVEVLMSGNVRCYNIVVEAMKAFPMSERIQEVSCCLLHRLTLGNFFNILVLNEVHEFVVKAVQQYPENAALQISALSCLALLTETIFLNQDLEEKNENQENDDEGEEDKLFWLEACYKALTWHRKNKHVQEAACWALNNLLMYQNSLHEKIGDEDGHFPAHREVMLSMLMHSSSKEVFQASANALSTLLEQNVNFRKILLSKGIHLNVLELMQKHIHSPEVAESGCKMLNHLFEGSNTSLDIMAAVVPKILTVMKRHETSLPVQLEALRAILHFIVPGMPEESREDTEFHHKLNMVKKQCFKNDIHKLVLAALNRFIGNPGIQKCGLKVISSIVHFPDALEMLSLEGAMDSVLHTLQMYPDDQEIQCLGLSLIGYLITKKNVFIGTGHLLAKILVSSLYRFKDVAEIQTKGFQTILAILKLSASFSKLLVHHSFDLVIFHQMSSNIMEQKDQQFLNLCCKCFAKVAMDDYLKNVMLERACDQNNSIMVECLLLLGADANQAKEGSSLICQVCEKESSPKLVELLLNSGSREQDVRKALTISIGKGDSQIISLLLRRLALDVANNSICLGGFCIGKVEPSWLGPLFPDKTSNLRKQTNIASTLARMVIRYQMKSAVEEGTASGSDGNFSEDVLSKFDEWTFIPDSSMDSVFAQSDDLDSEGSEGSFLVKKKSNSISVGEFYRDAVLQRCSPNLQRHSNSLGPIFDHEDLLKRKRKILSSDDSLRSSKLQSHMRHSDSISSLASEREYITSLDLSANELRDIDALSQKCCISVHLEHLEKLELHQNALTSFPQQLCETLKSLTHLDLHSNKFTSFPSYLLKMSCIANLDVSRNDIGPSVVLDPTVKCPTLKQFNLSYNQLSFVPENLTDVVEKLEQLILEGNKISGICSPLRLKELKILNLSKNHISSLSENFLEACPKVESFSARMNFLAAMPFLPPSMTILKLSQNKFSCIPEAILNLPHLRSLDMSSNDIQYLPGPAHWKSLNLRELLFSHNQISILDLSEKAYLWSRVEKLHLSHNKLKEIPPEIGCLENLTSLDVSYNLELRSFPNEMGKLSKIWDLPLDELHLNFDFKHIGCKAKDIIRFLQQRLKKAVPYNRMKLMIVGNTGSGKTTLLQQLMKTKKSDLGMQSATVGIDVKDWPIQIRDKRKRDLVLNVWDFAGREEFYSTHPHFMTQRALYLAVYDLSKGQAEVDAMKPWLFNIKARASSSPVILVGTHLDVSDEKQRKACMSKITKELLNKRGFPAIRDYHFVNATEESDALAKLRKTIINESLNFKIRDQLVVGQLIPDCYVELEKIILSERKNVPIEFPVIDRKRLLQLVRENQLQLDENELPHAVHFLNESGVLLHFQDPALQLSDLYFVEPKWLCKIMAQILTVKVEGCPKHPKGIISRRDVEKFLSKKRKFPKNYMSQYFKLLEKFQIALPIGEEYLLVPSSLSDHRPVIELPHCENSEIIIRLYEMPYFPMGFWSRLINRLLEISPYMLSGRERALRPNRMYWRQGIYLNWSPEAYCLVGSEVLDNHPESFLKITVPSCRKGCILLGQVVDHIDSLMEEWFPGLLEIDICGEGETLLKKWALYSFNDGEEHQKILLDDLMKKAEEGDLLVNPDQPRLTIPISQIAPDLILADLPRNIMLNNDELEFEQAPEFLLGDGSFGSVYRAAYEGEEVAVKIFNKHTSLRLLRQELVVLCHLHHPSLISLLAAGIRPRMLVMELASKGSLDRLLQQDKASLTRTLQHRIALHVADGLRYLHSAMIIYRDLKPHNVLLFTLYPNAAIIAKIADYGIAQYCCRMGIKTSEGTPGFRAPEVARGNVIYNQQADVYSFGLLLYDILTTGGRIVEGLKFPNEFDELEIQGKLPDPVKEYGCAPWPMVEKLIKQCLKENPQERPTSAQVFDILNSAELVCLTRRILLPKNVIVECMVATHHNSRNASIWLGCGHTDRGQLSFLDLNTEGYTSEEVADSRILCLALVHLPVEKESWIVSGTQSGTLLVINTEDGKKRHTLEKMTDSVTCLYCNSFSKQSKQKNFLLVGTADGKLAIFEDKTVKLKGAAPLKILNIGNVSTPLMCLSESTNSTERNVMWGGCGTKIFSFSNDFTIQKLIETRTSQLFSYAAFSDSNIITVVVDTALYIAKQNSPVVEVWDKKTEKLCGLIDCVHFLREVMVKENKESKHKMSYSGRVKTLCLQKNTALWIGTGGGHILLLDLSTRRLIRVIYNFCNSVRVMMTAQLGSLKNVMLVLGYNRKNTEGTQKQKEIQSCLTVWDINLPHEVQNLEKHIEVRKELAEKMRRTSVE

| SMILES | IC50 [µM] |
| --- | --- |
| CC(C)Oc1nn(C)cc1Nc1ncc2cc(C#N)n(C3COC3)c2n1 [Example 75, 2-((3-Isopropoxy-1-methyl-1 H-pyrazol-4-yl)amino)-7-(oxetan-3-yl)-7H-pyrrolo[2,3-d]pyrimidine-6-carbonitrile] | 0.044 |
| [2H]c1c(Nc2ncc3cc(C#N)n([C@H]4COC[C@@H]4C)c3n2)c(OC2COC2)nn1C [Example 94, 2-((1-Methyl-3-(oxetan-3-yloxy)-1 H-pyrazol-4-yl-5-d)amino)-7-((3R,4R)-4-methyltetrahydrofuran-3-yl)-7H-pyrrolo[2,3-d]pyrimidine-6-carbonitrile] | 0.007 |
| [2H]c1c(Nc2ncc3cc(C#N)n([C@@H](C)COC)c3n2)c(OC2CC2)nn1COC [Example 95, (S)-2-((3-cyclopropoxy-1-(methoxymethyl)-1H-pyrazol-4-yl-5-d)amino)-7-(1-methoxypropan-2-yl)-7H-pyrrolo[2,3-d]pyrimidine-6-carbonitrile] | 0.016 |
| [2H]c1c(Nc2ncc3cc(C#N)n([C@H]4COC[C@@H]4C)c3n2)c(OC2COC2C)nn1C (stereo partly drawn) [Example 97, 2-((1-methyl-3-((2-methyloxetan-3-yl)oxy)-1H-pyrazol-4-yl-5-d)amino)-7-((3R,4R)-4-methyltetrahydrofuran-3-yl)-7H-pyrrolo[2,3-d]pyrimidine-6-carbonitrile] | 0.012 |
| [2H]c1c(Nc2ncc3cc(C#N)n([C@H]4COC[C@@H]4C)c3n2)c(OC2COC2)nn1C([2H])([2H])[2H] [Example 98, 2-((1-(methyl-d3)-3-(oxetan-3-yloxy)-1H-pyrazol-4-yl-5-d)amino)-7-((3R,4R)-4-methyltetrahydrofuran-3-yl)-7H-pyrrolo[2,3-d]pyrimidine-6-carbonitrile] | 0.012 |
